This passage reports TGI results from PubChem BioAssay (NCI).

By TGI is commonly meant the concentration at which net growth stops.

Among the test systems are MDA-N; SNB-75 CNS; IGROV1 ovarian; OVCAR-4 ovarian; T-47D breast; ACHN renal; MCF7 breast; HCT-15 colon; EKVX NSCLC; NCI-H522 lung; HCC-2998 colon.
Experiment in all cases: DTP human tumour cell line panel, 48 h

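1) Cells in 96-well plates. 2) Compound, 48 h, 5 concentrations. 3) Linear interpolation between surrounding doses. 4) Unreached endpoint = highest concentration. TGI: concentration producing complete growth inhibition.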

Regarding `COC(CNC(=O)C(C)NC(=O)CCc1ccccc1)OC` (stereo unspecified), the TGI with MDA-N, in the assay with SNB-75 CNS, with IGROV1 ovarian, in the assay with OVCAR-4 ovarian, with T-47D breast and in the assay on ACHN renal was > 100 µM each time. For the same molecule, the TGI in the assay on MCF7 breast, in the assay with HCT-15 colon, with EKVX NSCLC and with NCI-H522 lung was > 100 µM in each case.
On to `O=P(Nc1ccc(Cl)cc1)(Oc1ccccc1)N(CCCl)CCCl` (stereo unspecified), for which the TGI with HCC-2998 colon, with SNB-75 CNS, with IGROV1 ovarian, in the assay on OVCAR-4 ovarian, in the assay with ACHN renal and in the assay on HCT-15 colon was > 100 µM throughout. The TGI in the assay with EKVX NSCLC and in the assay on NCI-H522 lung was > 100 µM throughout.
Consider `CC12C(=O)CC(CC1=O)C2(C)C`, for which the concentration for total growth inhibition (TGI) in the assay with MDA-N, in the assay on SNB-75 CNS, in the assay with IGROV1 ovarian, with OVCAR-4 ovarian, with T-47D breast and in the assay with ACHN renal was > 100 µM in each case. For the same molecule, the TGI in the assay on MCF7 breast, in the assay on HCT-15 colon, in the assay on EKVX NSCLC and in the assay on NCI-H522 lung was > 100 µM in each case.
For the molecule `COc1cc(/C=C2\C(=O)N(c3ccccc3)C(c3ccccc3)S2(=O)=O)cc(OC)c1OC` (stereo unspecified), the TGI was > 100 µM with HCC-2998 colon; 48.3 µM in the assay on MDA-N; > 100 µM in the assay on OVCAR-4 ovarian; > 100 µM in the assay on T-47D breast; > 100 µM in the assay with ACHN renal; > 100 µM in the assay on MCF7 breast. In addition, the TGI in the assay with HCT-15 colon, with EKVX NSCLC and in the assay on NCI-H522 lung was > 100 µM each time.
On to `Cc1c(S(=O)(=O)/N=C(\NO)Nc2ccc(Cl)c(Cl)c2)sc2ccc(Cl)cc12`, for which the concentration for total growth inhibition (TGI) with HCC-2998 colon turned out to be 44.6 µM; in the assay on MDA-N, 34.8 µM; with IGROV1 ovarian it was 34.5 µM; with OVCAR-4 ovarian, 32.3 µM; with T-47D breast, 36.7 µM; in the assay on ACHN renal it was 25.8 µM. For the same molecule, the total growth inhibition concentration (TGI) in the assay on MCF7 breast came out at 86.8 µM; in the assay with HCT-15 colon, 35.7 µM; in the assay on EKVX NSCLC, 27.4 µM; with NCI-H522 lung it was 41.3 µM.
As to `O=C(c1ccc(N=Cc2ccccc2O)cc1)c1ccc(N=Cc2ccccc2O)cc1`, the TGI in the assay on HCC-2998 colon, in the assay on SNB-75 CNS, in the assay with IGROV1 ovarian, in the assay with OVCAR-4 ovarian, in the assay with T-47D breast and with ACHN renal was > 100 µM throughout. Further, the total growth inhibition concentration (TGI) with MCF7 breast, in the assay on HCT-15 colon, with EKVX NSCLC and in the assay on NCI-H522 lung was > 100 µM in each case.
As to `O=C1C=C(C2=CC(=O)C(=O)c3ccccc32)c2ccccc2C1=O`, the TGI with SNB-75 CNS is 60.1 µM; with IGROV1 ovarian, > 100 µM; in the assay on OVCAR-4 ovarian it was > 100 µM; in the assay on T-47D breast, 56.1 µM; in the assay with ACHN renal, > 100 µM; in the assay with MCF7 breast it was 48.3 µM. Besides, the TGI with HCT-15 colon, with EKVX NSCLC and in the assay on NCI-H522 lung was > 100 µM throughout.
Turning to `CC(=O)OC(/C=C/c1ccccc1)=C(OC(C)C)/C1=C(\c2ccccc2)SCCCSC1=O`, the TGI in the assay on HCC-2998 colon, in the assay on SNB-75 CNS, with OVCAR-4 ovarian, in the assay with ACHN renal, with MCF7 breast and in the assay with HCT-15 colon was > 100 µM each time. The TGI in the assay with EKVX NSCLC was > 100 µM.
`O=C1CSC(c2cccc(Oc3ccccc3)c2)N1c1ccc(Cl)cc1` (stereo unspecified): the TGI with MDA-N is 63.6 µM; in the assay with SNB-75 CNS it was 95.8 µM; in the assay on OVCAR-4 ovarian it was > 100 µM; in the assay on T-47D breast it was 91.9 µM; in the assay with ACHN renal, 75 µM; with MCF7 breast, 38.5 µM. Further, the TGI with HCT-15 colon is > 100 µM; with EKVX NSCLC, 78.7 µM; with NCI-H522 lung, 49.4 µM.
For `NN/C(=N\S(=O)(=O)c1cc2ccccc2s1)Nc1ccc(Cl)cc1`, the TGI in the assay with SNB-75 CNS was determined as 38.7 µM; in the assay on IGROV1 ovarian, 36.4 µM; with OVCAR-4 ovarian, 38.5 µM; with T-47D breast, 37.8 µM; with ACHN renal, 54.4 µM; in the assay with MCF7 breast, 42.4 µM. Further, the concentration for total growth inhibition (TGI) in the assay on HCT-15 colon was > 100 µM; in the assay on EKVX NSCLC, 42.2 µM.
On to `CC1NC(=O)CC(c2ccccc2)N(N=O)C1c1ccccc1` (stereo unspecified), for which the TGI in the assay on HCC-2998 colon was > 100 µM; in the assay on SNB-75 CNS it was > 65.2 µM; in the assay on IGROV1 ovarian, > 100 µM; in the assay with OVCAR-4 ovarian it was > 87.5 µM; with MCF7 breast it was > 100 µM; in the assay with HCT-15 colon it was > 100 µM. The values for the TGI in the assay on EKVX NSCLC and with NCI-H522 lung were > 100 µM and 49.7 µM, respectively.
Take `NC(Cc1ccccc1)C(=O)N[C@H]1c2ccsc2/C(=N/O)[C@H]1O` (stereo partly specified): the total growth inhibition concentration (TGI) in the assay with HCC-2998 colon, with MDA-N, in the assay on IGROV1 ovarian, in the assay on OVCAR-4 ovarian, in the assay on T-47D breast and in the assay on MCF7 breast was > 100 µM each time. The TGI with HCT-15 colon and in the assay with EKVX NSCLC was > 100 µM in each case.
As to `O=C(NI1OC(=O)c2ccccc21)c1ccc(Cl)cc1`, the total growth inhibition concentration (TGI) with HCC-2998 colon, in the assay with SNB-75 CNS, in the assay with IGROV1 ovarian, in the assay on OVCAR-4 ovarian, in the assay on T-47D breast and in the assay on ACHN renal was > 100 µM in each case. Further, the TGI with MCF7 breast was > 100 µM; in the assay on HCT-15 colon, > 100 µM; in the assay with EKVX NSCLC, > 100 µM; in the assay on NCI-H522 lung, 35.2 µM.
Take `NC(N)=NCCC[C@H](N)C(=O)NCC(=O)N[C@@H](CC(=O)O)c1ncc(NC(=O)C(F)(F)F)o1`: the total growth inhibition concentration (TGI) in the assay with HCC-2998 colon, in the assay on SNB-75 CNS, in the assay on IGROV1 ovarian, in the assay on OVCAR-4 ovarian, in the assay with T-47D breast and in the assay with ACHN renal was > 25 µM each time. For the same molecule, the TGI with MCF7 breast, with HCT-15 colon, in the assay on EKVX NSCLC and with NCI-H522 lung was > 25 µM throughout.
